# Tests used:
# [1] = tested on: ICR strain male mice; assay: in vivo; type: in vivo; details: for No. of deceased animal: 8 animals per group, 1 week
# Description: (§1) ICR strain male mice, weighing 30-35 g., were deprived of food for 6 hours (water ad libitum) and then used in the experiment. Each group consisted of 8 animals. The test compound was suspended in a 1% tragacanth gum solution so as to be a volume of 40 ml./kg. and orally given. After administration, numbers of deceased animals, changes in body weight and other general states were observed or determined over 1 week.
# (§2) Survived mice were autopsyed.
# [2] = in vivo; type: in vivo; details: mouse, in vivo, po; mice
# Description: as §1, §2
# [3] = tested on: spontaneously hypertensive rats (SHR); assay: Antihypertensive effect, oral administration to spontaneously hypertensive rats (mean blood pressure and heart rate); type: in vivo, rat; details: for Change in blood pressure after 3 hrs. from administration: Table 1; for Changes in blood pressure (BP) after oral administration / Changes in heart rate (HR) after oral administration: Table 2, male SHR, n=5, p.o.
# Description: Antihypertensive effect was determined by oral administration of the test compound to spontaneously hypertensive rats (hereinafter referred to as SHR).
# These SHR were anesthetized with ether and chronically embedded with a cannula for determination of blood pressure so that one end of the said cannula may be placed in abdominal aorta and the other end thereof may be projected out of dorsal neck. When rats regained their body weight before operation in more than 1 week from operation, the test compound was given. Determination was made by measuring a mean blood pressure and a heart rate under unanesthetized and unrestrained conditions with the cannula connected to an electronic recording system. The test compound was suspended in a 1% tragacanth gum solution to make up a concentration so as to be a volume of 5 ml./kg. and then orally given.
# [4] = tested on: Adrenergic α-receptor; assay: Adrenergic α-receptor blocking effect (inhibition of hypertensive action of i.v. adrenalin hydrochloride); type: in vivo, Wistar strain male rats; details: relative to prazosin
# Description: Wistar strain male rats, weighing 250-300 g., were used in this experiment. The rat was anesthetized with pentobarbital sodium and fitted in the right femoral artery with a cannula for determination of blood pressure and in the left femoral vein with another cannula for intravenous injection, the former cannula being connected to an electronic recording system to measure a blood pressure.
# Adrenergic α-receptor blocking effect was determined upon whether a hypertensive action with intravenous injection of adrenalin hydrochloride at 0.3 or 1 μg./kg. may be reserved by pretreatment with the test compound.
compound,measurement,setting,value
"COc1cc2nc(N3CCN(C(=O)C=Cc4ccccc4)CC3)nc(N)c2cc1OC [Compound No. 1, 2-(4-Cinnamoylpiperazin-1-yl)-4-amino-6,7-dimethoxyquinazoline]",Body weight gain after 7 days,"[1]; p.o., 1,250 mg./kg.",+3.9 g.
same,No. of deceased animal,"[1]; p.o., 1,250 mg./kg.",0
same,Body weight gain after 7 days,"[1]; p.o., 2,500 mg./kg.",+4.0 g.
same,No. of deceased animal,"[1]; p.o., 2,500 mg./kg.",0
same,Body weight gain after 7 days,"[1]; p.o., 5,000 mg./kg.",+4.7 g.
same,No. of deceased animal,"[1]; p.o., 5,000 mg./kg.",0
same,LD50 at 168 h,[2],> 5000 mg/kg
same,time of maximum antihypertensive effect from oral administration,"[3]; SHR, p.o.",3 to 6 h
same,"antihypertensive effect, dose dependence","[3]; SHR, p.o., 0.3-3 mg./kg., in words",correlated with a dose
same,Change in blood pressure after 3 hrs. from administration,"[3]; SHR, p.o., 1 mg./kg., 3 hrs.",-18 mmHg
same,Change in blood pressure after 3 hrs. from administration,"[3]; SHR, p.o., 10 mg./kg., 3 hrs.",-53 mmHg
same,Changes in blood pressure (BP) after oral administration,"[3]; 0.3 mg./kg., 1 hr.",-14±5.1 mm.Hg.
same,Changes in heart rate (HR) after oral administration,"[3]; 0.3 mg./kg., 1 hr.",-5.3±3.9 no/min.
same,Changes in blood pressure (BP) after oral administration,"[3]; 0.3 mg./kg., 3 hrs.",-16±3.3 mm.Hg.
same,Changes in heart rate (HR) after oral administration,"[3]; 0.3 mg./kg., 3 hrs.",-3.8±7.4 no/min.
same,Changes in blood pressure (BP) after oral administration,"[3]; 0.3 mg./kg., 6 hrs.",-19±1.9 mm.Hg.
same,Changes in heart rate (HR) after oral administration,"[3]; 0.3 mg./kg., 6 hrs.",0.3±5.9 no/min.
same,Changes in blood pressure (BP) after oral administration,"[3]; 0.3 mg./kg., 24 hrs.",4±4.3 mm.Hg.
same,Changes in heart rate (HR) after oral administration,"[3]; 0.3 mg./kg., 24 hrs.",3.9±7.1 no/min.
same,Changes in blood pressure (BP) after oral administration,"[3]; 1 mg./kg., 1 hr.",-20±1.6 mm.Hg.
same,Changes in heart rate (HR) after oral administration,"[3]; 1 mg./kg., 1 hr.",-4.8±4.1 no/min.
same,Changes in blood pressure (BP) after oral administration,"[3]; 1 mg./kg., 3 hrs.",-26±3.3 mm.Hg.
same,Changes in heart rate (HR) after oral administration,"[3]; 1 mg./kg., 3 hrs.",-1.5±4.7 no/min.
same,Changes in blood pressure (BP) after oral administration,"[3]; 1 mg./kg., 6 hrs.",-27±4.1 mm.Hg.
same,Changes in heart rate (HR) after oral administration,"[3]; 1 mg./kg., 6 hrs.",-7.9±2.7 no/min.
same,Changes in blood pressure (BP) after oral administration,"[3]; 1 mg./kg., 24 hrs.",-2±1.2 mm.Hg.
same,Changes in heart rate (HR) after oral administration,"[3]; 1 mg./kg., 24 hrs.",-0.5±3.2 no/min.
same,Changes in blood pressure (BP) after oral administration,"[3]; 3 mg./kg., 1 hr.",-40±3.5 mm.Hg.
same,Changes in heart rate (HR) after oral administration,"[3]; 3 mg./kg., 1 hr.",6.9±5.4 no/min.
same,Changes in blood pressure (BP) after oral administration,"[3]; 3 mg./kg., 3 hrs.",-35±4.4 mm.Hg.
same,Changes in heart rate (HR) after oral administration,"[3]; 3 mg./kg., 3 hrs.",-1.7±5.5 no/min.
same,Changes in blood pressure (BP) after oral administration,"[3]; 3 mg./kg., 6 hrs.",-35±3.5 mm.Hg.
same,Changes in heart rate (HR) after oral administration,"[3]; 3 mg./kg., 6 hrs.",10.0±8.3 no/min.
same,Changes in blood pressure (BP) after oral administration,"[3]; 3 mg./kg., 24 hrs.",-4±4.3 mm.Hg.
same,Changes in heart rate (HR) after oral administration,"[3]; 3 mg./kg., 24 hrs.",19.5±7.2 no/min.
same,α-receptor blocking action as compared with the action of prazosin,[4],1/10
